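96-well plates; 48 h exposure; 5 concentrations. Endpoints by linear interpolation between flanking doses. Not reached: highest tested concentration assigned. GI50 = concentration required for 50% inhibition of growth.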 Calls of active or inactive are those of the source. Rule as the data show it: active = GI50 up to about 1.1 µM and inactive = higher. A value given as a limit tells only on which side of the number the result lay.

Among the test systems are HL-60; U-251; HOP-62; KM12; SF-539; TK-10; CAKI-1; M14; Malme-3M; SR; COLO 205; SW-620; SN12C; MCF7; OVCAR-8; SF-295; NCI-H522; NCI-H226; SK-MEL-5; RPMI-8226.
Holding throughout (experiment): NCI-60 cell line screen, 48 h

On to `CC1C(=NO)C(C)C(c2ccccc2)N(N=O)C1c1ccccc1` (configuration not stated), for which the GI50 was 25 µM (inactive) with HL-60; 17.7 µM (inactive) in the assay with U-251; 19.1 µM (inactive) in the assay on HOP-62; 16 µM (inactive) with KM12; 13.1 µM (inactive) with SF-539; 24.1 µM (inactive) with TK-10. Also, the GI50 with CAKI-1 was > 10 µM (inactive); in the assay with M14 it was 16 µM (inactive); in the assay with Malme-3M it was 17.4 µM (inactive); in the assay on SR, 15.5 µM (inactive); in the assay on COLO 205, 17.3 µM (inactive); in the assay with SW-620, 21.8 µM (inactive). Further, the GI50 with SN12C is 15.5 µM (inactive); in the assay with MCF7, 37.9 µM (inactive); in the assay on OVCAR-8, 18 µM (inactive); with SF-295, 13.8 µM (inactive); with NCI-H522 it was 14.7 µM (inactive); with NCI-H226 it was 24.7 µM (inactive). Further, the GI50 in the assay with SK-MEL-5 was 18.9 µM (inactive).
For the compound `CC1(C)C(C#N)=[N+]([O-])C(C)(C)N1O`, the GI50 in the assay with HL-60 is 26.7 µM (inactive); in the assay with U-251 it was > 100 µM (inactive); with HOP-62 it was > 100 µM (inactive); in the assay on KM12 it was > 100 µM (inactive); in the assay with SF-539 it was > 100 µM (inactive); with TK-10, > 100 µM (inactive). Further, the GI50 in the assay on CAKI-1, with M14, in the assay on Malme-3M, with SR, in the assay on COLO 205 and in the assay with RPMI-8226 was > 100 µM (inactive) throughout. For the same compound, the GI50 with SW-620 is 72.3 µM (inactive); with SN12C it was > 100 µM (inactive); in the assay on MCF7, 79.4 µM (inactive); in the assay on OVCAR-8, > 100 µM (inactive); in the assay on SF-295, > 100 µM (inactive); with NCI-H226, > 100 µM (inactive). The GI50 with SK-MEL-5 is 34.6 µM (inactive).
As to `C=CCOC(OCC=C)/C(Br)=C/C`, the GI50 with HL-60 was 41 µM (inactive); in the assay with U-251, 59.2 µM (inactive); in the assay with HOP-62, > 100 µM (inactive); in the assay with KM12, > 100 µM (inactive); in the assay with TK-10, > 100 µM (inactive); in the assay with CAKI-1 it was 16.7 µM (inactive). For the same compound, the GI50 is 32.1 µM (inactive) with M14; > 100 µM (inactive) with SR; 19.2 µM (inactive) in the assay on COLO 205; > 100 µM (inactive) in the assay with RPMI-8226; 37.5 µM (inactive) in the assay on SW-620; > 100 µM (inactive) with SN12C. Moreover, the GI50 is 28.3 µM (inactive) with MCF7; 17.7 µM (inactive) with OVCAR-8; > 100 µM (inactive) with SF-295; > 100 µM (inactive) with NCI-H226; 37 µM (inactive) with SK-MEL-5.
As for `COc1ccc(C2=C(Cl)C(=O)N(c3ccc(OC)cc3OC)C(=O)C2(Cl)Cl)cc1`, the GI50 in the assay on HL-60 is 25.2 µM (inactive); with U-251, 16.6 µM (inactive); in the assay with HOP-62, 18.5 µM (inactive); with KM12, 17.1 µM (inactive); in the assay on SF-539 it was 10.4 µM (inactive); with TK-10 it was 18.9 µM (inactive). Besides, the GI50 in the assay with CAKI-1 was 11.9 µM (inactive); in the assay with M14 it was 14.6 µM (inactive); with Malme-3M, 14.6 µM (inactive); in the assay on SR it was 4.09 µM (inactive); with COLO 205 it was 17.9 µM (inactive); in the assay on SW-620, 14.8 µM (inactive). The GI50 was < 0.01 µM (active) with SN12C; 21 µM (inactive) in the assay with MCF7; 19.5 µM (inactive) with OVCAR-8; 24.3 µM (inactive) with SF-295; 14.3 µM (inactive) with NCI-H522; 11.9 µM (inactive) in the assay on NCI-H226. In addition, the GI50 with SK-MEL-5 is 14.9 µM (inactive).
Consider `COc1ccc(N[C@H](C[S+]([O-])c2ccc(C)cc2)C(F)(F)F)cc1` (some centres not stated), for which the GI50 with HL-60, with U-251, in the assay with KM12, with SF-539, in the assay with TK-10 and with CAKI-1 was > 100 µM (inactive) throughout. The GI50 with M14, in the assay on Malme-3M, with SR, in the assay on COLO 205, in the assay on SW-620 and with SN12C was > 100 µM (inactive) in each case. For the same compound, the GI50 in the assay with MCF7, in the assay on OVCAR-8, in the assay on SF-295, in the assay with NCI-H522, with NCI-H226 and in the assay on SK-MEL-5 was > 100 µM (inactive) throughout.
For the compound `CC[C@]12C=CCN3CCC4(c5cc(/N=N/c6ccc([N+](=O)[O-])cc6)c(OC)cc5N(C)[C@H]4[C@@](O)(C(=O)OC)[C@@H]1OC(C)=O)[C@@H]32` (some centres not stated), the GI50 in the assay on HL-60 is 7.31 µM (inactive); with U-251, 11.2 µM (inactive); in the assay with HOP-62, 13.6 µM (inactive); in the assay on KM12, 14.3 µM (inactive); in the assay with SF-539 it was 16.8 µM (inactive); in the assay with TK-10, 17.2 µM (inactive). Further, the GI50 with CAKI-1 was 12.9 µM (inactive); with M14 it was 15.5 µM (inactive); in the assay on Malme-3M, 16.1 µM (inactive); with SR it was 9.71 µM (inactive); in the assay on COLO 205, 4.63 µM (inactive); in the assay with RPMI-8226, 3.48 µM (inactive). The GI50 in the assay with SW-620 was 2.56 µM (inactive); in the assay with SN12C, 23.8 µM (inactive); with MCF7, 11.6 µM (inactive); with OVCAR-8, 7.46 µM (inactive); with SF-295, 10.6 µM (inactive); with NCI-H226, 5.5 µM (inactive). Further, the GI50 in the assay with SK-MEL-5 is 12.4 µM (inactive).
In the case of `ClCCN1CCC2(CC1)SSC1(CCN(CCCl)CC1)S2`, the GI50 was 30.7 µM (inactive) in the assay with HL-60; 42.1 µM (inactive) in the assay on U-251; > 100 µM (inactive) in the assay with HOP-62; > 100 µM (inactive) in the assay with KM12; 20.6 µM (inactive) in the assay on SF-539; 35.9 µM (inactive) with TK-10. Moreover, the GI50 in the assay on CAKI-1 is 11.9 µM (inactive); with M14, 61.4 µM (inactive); with Malme-3M it was 29.2 µM (inactive); with SR, 7.74 µM (inactive); in the assay on COLO 205, 15.8 µM (inactive); in the assay on RPMI-8226, 21.4 µM (inactive). Further, the GI50 in the assay with SW-620 is 76.6 µM (inactive); with SN12C, 26.2 µM (inactive); with MCF7, 11.6 µM (inactive); with OVCAR-8, > 100 µM (inactive); in the assay on SF-295, 29.4 µM (inactive); in the assay with SK-MEL-5, 42.4 µM (inactive).
As to `COc1ccc2c(=O)c3c([nH]c2c1)OCC3=O`, the GI50 with HL-60, in the assay on U-251, in the assay with HOP-62, in the assay with KM12, in the assay with SF-539 and in the assay with TK-10 was > 100 µM (inactive) throughout. Besides, the GI50 with CAKI-1, in the assay on M14, in the assay on SR, with COLO 205, in the assay on RPMI-8226 and in the assay with SW-620 was > 100 µM (inactive) in each case. In addition, the GI50 in the assay on MCF7, in the assay with OVCAR-8, in the assay with SF-295, in the assay on NCI-H226 and with SK-MEL-5 was > 100 µM (inactive) throughout.
As to `C1=C2SSC3=CC=C(SSc4ccc(s4)SSC4=CC=C(SSC(=C1)S2)S4)S3`, the GI50 with U-251, in the assay on HOP-62, with KM12, in the assay with TK-10, with CAKI-1 and in the assay with M14 was > 100 µM (inactive) throughout. Further, the GI50 with Malme-3M, in the assay on SR, with COLO 205, in the assay on RPMI-8226, with SW-620 and in the assay with SN12C was > 100 µM (inactive) each time. Further, the GI50 with MCF7, in the assay on OVCAR-8, in the assay with SF-295, with NCI-H522, in the assay on NCI-H226 and in the assay on SK-MEL-5 was > 100 µM (inactive) in each case.
On to `Clc1ccc(/C=N/c2ccc(Oc3ccc(Cl)cc3)c(Cl)c2)cc1`, for which the GI50 with HL-60 was 23.3 µM (inactive); in the assay on U-251 it was 23.9 µM (inactive); with HOP-62 it was 19.4 µM (inactive); with KM12, 24.8 µM (inactive); with SF-539 it was 17.2 µM (inactive); in the assay on TK-10, 50.7 µM (inactive). Also, the GI50 in the assay on CAKI-1 was 6.41 µM (inactive); in the assay on M14, 21.1 µM (inactive); in the assay on Malme-3M it was 20.2 µM (inactive); with COLO 205, 21.6 µM (inactive); with RPMI-8226, 28.4 µM (inactive); with SW-620, 31 µM (inactive). The GI50 is 19.5 µM (inactive) in the assay with SN12C; 30.8 µM (inactive) in the assay with MCF7; 29.4 µM (inactive) in the assay on OVCAR-8; 18.8 µM (inactive) in the assay on SF-295; 14.3 µM (inactive) with NCI-H522; 35.3 µM (inactive) in the assay on NCI-H226. In the assay on SK-MEL-5, the GI50 was 22.3 µM (inactive).
Take `Nc1ncnc2c1ncn2C1CCC(COS(N)(=O)=O)C1` (configuration not stated): the GI50 in the assay on HL-60 is 31.1 µM (inactive); in the assay on U-251, > 100 µM (inactive); in the assay on HOP-62, > 100 µM (inactive); in the assay with KM12, > 100 µM (inactive); with SF-539 it was 27 µM (inactive); in the assay with TK-10, > 100 µM (inactive). Besides, the GI50 is > 100 µM (inactive) in the assay with CAKI-1; > 100 µM (inactive) in the assay with M14; > 100 µM (inactive) with Malme-3M; 56.4 µM (inactive) in the assay with SR; > 100 µM (inactive) in the assay on COLO 205; > 100 µM (inactive) in the assay on RPMI-8226. For the same compound, the GI50 in the assay with SW-620 is > 100 µM (inactive); with SN12C it was > 100 µM (inactive); with MCF7 it was 58.7 µM (inactive); with OVCAR-8, > 100 µM (inactive); in the assay on SF-295, > 100 µM (inactive); in the assay with NCI-H226, > 100 µM (inactive). Also, the GI50 in the assay on SK-MEL-5 is > 100 µM (inactive).

Source of the values: ChEMBL document CHEMBL1201862, “PubChem BioAssay data set” (2004).
